PMC11558128 (Advanced Science, 2024)
Positions of bridges follow the written chain, without caps; N, C: chain ends. Residues, ends and D or L forms follow the SMILES beside them.

How the values were obtained:
[1] = target: T1, rKv4.2 V278A (Rattus norvegicus, UniProt Q63881, V278A); assay: cell-based; conditions: mean ± SEM
T1 construct: expressed in transfected cells; host or cells: HEK293T
T1 sequence (Q63881 1-630 V278A): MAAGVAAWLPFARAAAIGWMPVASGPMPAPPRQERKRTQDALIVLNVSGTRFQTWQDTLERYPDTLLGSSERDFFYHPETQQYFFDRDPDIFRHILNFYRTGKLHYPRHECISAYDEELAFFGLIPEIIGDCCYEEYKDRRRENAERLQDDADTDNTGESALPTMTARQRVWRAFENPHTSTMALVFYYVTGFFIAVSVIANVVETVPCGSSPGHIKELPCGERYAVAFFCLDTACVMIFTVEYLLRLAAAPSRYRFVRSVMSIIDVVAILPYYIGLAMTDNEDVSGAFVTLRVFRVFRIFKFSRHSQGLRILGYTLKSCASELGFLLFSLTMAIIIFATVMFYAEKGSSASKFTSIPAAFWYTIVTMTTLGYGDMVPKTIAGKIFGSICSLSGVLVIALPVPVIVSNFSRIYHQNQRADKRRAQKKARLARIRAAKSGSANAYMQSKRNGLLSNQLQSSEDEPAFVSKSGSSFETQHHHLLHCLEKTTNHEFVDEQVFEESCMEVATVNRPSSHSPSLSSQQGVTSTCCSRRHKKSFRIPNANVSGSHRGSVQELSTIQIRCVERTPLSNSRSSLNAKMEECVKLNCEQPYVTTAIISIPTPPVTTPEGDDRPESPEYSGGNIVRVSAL

[2] = target: T2, rKv4.2 E283A (Rattus norvegicus, UniProt Q63881, E283A); assay: Patch clamp of rKv4.2 mutant E283A; format: cell-based; conditions: mean ± SEM
T2 construct: expressed in transfected cells; host or cells: HEK293T
T2 sequence (Q63881 whole entry E283A): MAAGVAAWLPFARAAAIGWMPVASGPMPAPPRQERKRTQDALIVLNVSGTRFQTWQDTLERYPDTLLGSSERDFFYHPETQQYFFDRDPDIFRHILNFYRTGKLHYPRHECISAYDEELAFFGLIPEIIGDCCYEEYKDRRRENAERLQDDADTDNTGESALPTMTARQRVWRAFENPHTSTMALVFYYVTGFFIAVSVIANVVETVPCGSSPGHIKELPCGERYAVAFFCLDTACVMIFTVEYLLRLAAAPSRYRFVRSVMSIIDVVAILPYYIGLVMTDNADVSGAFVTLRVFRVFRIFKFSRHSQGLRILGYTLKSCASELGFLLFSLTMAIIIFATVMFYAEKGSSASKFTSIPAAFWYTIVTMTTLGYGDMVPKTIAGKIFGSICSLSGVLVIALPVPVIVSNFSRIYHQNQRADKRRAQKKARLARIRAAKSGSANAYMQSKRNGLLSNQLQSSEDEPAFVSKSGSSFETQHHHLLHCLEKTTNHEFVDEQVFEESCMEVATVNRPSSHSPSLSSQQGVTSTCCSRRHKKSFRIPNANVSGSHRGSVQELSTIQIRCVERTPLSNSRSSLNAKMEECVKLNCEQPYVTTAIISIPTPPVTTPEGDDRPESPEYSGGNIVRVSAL

[3] = target: T3, rKv4.2 D281N (Rattus norvegicus, UniProt Q63881, D281N); assay: Patch clamp of rKv4.2 mutant D281N; format: cell-based; conditions: mean ± SEM
T3 construct: expressed in transfected cells; host or cells: HEK293T
T3 sequence (Q63881 whole entry D281N): as the sequence (Q63881 whole entry E283A) above, with D281N, A283E counted along it

[4] = target: T4, rKv4.2 D284A (Rattus norvegicus, UniProt Q63881, D284A); assay: Patch clamp of rKv4.2 mutant D284A; format: cell-based; conditions: mean ± SEM
T4 construct: expressed in transfected cells; host or cells: HEK293T
T4 sequence (Q63881 whole entry D284A): as the sequence (Q63881 whole entry E283A) above, with A283E, D284A counted along it

[5] = target: hERG (Homo sapiens, UniProt Q12809); assay: in vitro; conditions: pH 7.4, SEM
Chain of hERG (Q12809 whole entry): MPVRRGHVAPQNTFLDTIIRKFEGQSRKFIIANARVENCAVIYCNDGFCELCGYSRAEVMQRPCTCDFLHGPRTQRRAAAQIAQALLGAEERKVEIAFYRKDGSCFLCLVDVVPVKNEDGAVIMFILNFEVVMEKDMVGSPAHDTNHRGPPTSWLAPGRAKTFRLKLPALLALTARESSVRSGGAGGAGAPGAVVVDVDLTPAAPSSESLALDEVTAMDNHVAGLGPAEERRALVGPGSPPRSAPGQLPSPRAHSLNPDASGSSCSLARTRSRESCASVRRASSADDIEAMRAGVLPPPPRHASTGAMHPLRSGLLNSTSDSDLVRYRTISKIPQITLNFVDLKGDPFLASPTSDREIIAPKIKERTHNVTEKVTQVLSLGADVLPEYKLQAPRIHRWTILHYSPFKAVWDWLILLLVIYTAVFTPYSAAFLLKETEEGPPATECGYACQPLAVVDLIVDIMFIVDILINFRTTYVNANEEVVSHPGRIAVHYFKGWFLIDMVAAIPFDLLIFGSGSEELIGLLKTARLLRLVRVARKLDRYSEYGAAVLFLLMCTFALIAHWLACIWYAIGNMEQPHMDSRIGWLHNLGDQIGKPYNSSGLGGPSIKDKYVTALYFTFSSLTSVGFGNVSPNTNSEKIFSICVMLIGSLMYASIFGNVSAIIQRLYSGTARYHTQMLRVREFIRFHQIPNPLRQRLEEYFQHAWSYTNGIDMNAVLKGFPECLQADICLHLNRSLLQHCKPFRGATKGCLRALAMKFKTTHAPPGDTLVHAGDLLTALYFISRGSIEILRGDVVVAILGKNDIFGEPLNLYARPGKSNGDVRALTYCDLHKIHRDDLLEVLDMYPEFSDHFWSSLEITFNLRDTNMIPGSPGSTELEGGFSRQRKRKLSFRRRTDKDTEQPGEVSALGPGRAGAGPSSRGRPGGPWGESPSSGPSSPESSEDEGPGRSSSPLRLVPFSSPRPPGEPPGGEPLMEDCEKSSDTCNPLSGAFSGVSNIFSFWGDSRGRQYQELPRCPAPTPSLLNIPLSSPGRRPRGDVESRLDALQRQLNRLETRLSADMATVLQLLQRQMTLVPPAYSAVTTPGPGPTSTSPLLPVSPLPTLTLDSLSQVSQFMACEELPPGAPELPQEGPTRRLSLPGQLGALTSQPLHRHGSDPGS

Row | Compound | IC50 [1] | IC50 [2] | IC50 [3] | IC50 [4] | IC50 [5]
1 | CC(C)C[C@H](NC(=O)[C@H](Cc1ccc(O)cc1)NC(=O)[C@@H](NC(=O)[C@H](CCCCN)NC(=O)[C@@H]1CSSC[C@@H]2NC(=O)[C@H](CCC(=O)O)NC(=O)[C@H](CC(N)=O)NC(=O)[C@H](CCCCN)NC(=O)CNC(=O)[C@@H]3CCCN3C(=O)[C@H]([C@@H](C)O)NC(=O)[C@@H]3CSSC[C@H](NC(=O)[C@H](C)NC(=O)[C@H](Cc4ccc(O)cc4)NC(=O)[C@H](CC(N)=O)NC(=O)[C@@H]4CCCN4C(=O)[C@H](CSSC[C@H](NC(=O)CN)C(=O)N[C@@H](CCCCN)C(=O)NCC(=O)N[C@@H](Cc4ccccc4)C(=O)NCC(=O)N[C@@H](CC(=O)O)C(=O)N[C@@H](CO)C(=O)N3)NC2=O)C(=O)N[C@@H](CO)C(=O)N[C@@H](CO)C(=O)N[C@@H](CCCCN)C(=O)N[C@@H](Cc2c[nH]cn2)C(=O)N[C@@H](CCCCN)C(=O)N[C@@H](Cc2c[nH]c3ccccc23)C(=O)N1)C(C)C)C(N)=O [HNTX-III] (H-GCKGFGDSCTPGKNECCPNYACSSKHKWCKVYL-NH2; disulfide 2-17, 9-22, 16-29) | 177 ± 63 nM | 987 ± 303 nM | 131 ± 32 nM | 491 ± 72 nM | –
2 | CSCC[C@@H]1NC(=O)CNC(=O)[C@H](CCC(=O)O)NC(=O)[C@@H]2CSSC[C@H](NC(=O)[C@@H](N)Cc3ccc(O)cc3)C(=O)N[C@@H](CCC(N)=O)C(=O)N[C@@H](CCCCN)C(=O)N[C@@H](Cc3c[nH]c4ccccc34)C(=O)N[C@@H](CCSC)C(=O)N[C@@H](Cc3c[nH]c4ccccc34)C(=O)N[C@@H]([C@@H](C)O)C(=O)N[C@H]3CSSC[C@H](NC(=O)[C@H](C(C)C)NC1=O)C(=O)N[C@@H](CCCNC(=N)N)C(=O)N[C@@H](CC(C)C)C(=O)N[C@@H](Cc1c[nH]c4ccccc14)C(=O)N[C@H](C(=O)N[C@@H](CCCCN)C(=O)N[C@@H](CCCCN)C(=O)N[C@@H](CCCCN)C(=O)N[C@@H](CC(C)C)C(=O)N[C@@H](Cc1c[nH]c4ccccc14)C(=O)O)CSSC[C@H](NC(=O)[C@H](CCCCN)NC(=O)[C@H](CCCNC(=N)N)NC(=O)[C@H](CCC(=O)O)NC(=O)[C@H](CO)NC(=O)[C@H](CC(=O)O)NC3=O)C(=O)N2 [ProTx-II] | 10 ± 2 nM | – | – | – | 29.7 ± 2.8 nM
